Data taken from ChEMBL document CHEMBL1127963, “Vasoactive eicosanoids: Synthesis of 12,20-dihydroxyeicosa-5(Z),8(Z),10(E),14(Z)-tetraenoic acid via a novel chiral bis-lactol” (1994).

Organism: Canis familiaris
Test: Compound was tested relaxation of contracted coronary arteries of canine at 5 x 10-e M (p<0.01)
Type: functional, Canis lupus familiaris

SMILES: O=C(O)CCC/C=C\C/C=C\C=C\C(O)C/C=C\CCCCCO (stereo unspecified)
- Relation: 48%
